# Reference: patent publication US6063773A, “Cellulose sulfate for use as antimicrobial and contraceptive agent” (Polydex Pharmaceuticals Ltd., priority 1995, dated 2000)
# Key:
# [1] = system: rabbit spermatozoa; assay: Fertilization outcome after artificial insemination of spermatozoa pretreated with polysaccharides; assay type: in vivo; settings: for anti-fertility effect of treating spermatozoa: spermatozoa treated with comparator polysaccharide
# Text: FIG. 1 is a table showing fertilization outcome after artificial insemination of spermatozoa pretreated with different polysaccharides.
# FIG. 1 illustrates the antifertility effect of cellulose sulfate on rabbit spermatozoa at a concentration as low as 0.1%.
# [2] = system: conception in rabbits; assay: Contraceptive efficacy when applied vaginally; assay type: in vivo, rabbit
# Text: FIG. 2 is a table showing the contraceptive efficacy of cellulose sulfate when applied vaginally.
# [3] = rabbit, in vivo
# [4] = system: spermatozoa; assay: Cervical mucus penetration experiments; assay type: cell-based; settings: 1% concentration, in vitro, FIG. 3
# Text: FIG. 3 is a table providing the results of cervical mucus penetration experiments.
# [5] = system: human spermatozoa; assay: Acrosome reaction of human spermatozoa; assay type: cell-based; settings: FIG. 4
# Text: FIG. 4 is a table illustrating the influence of cellulose sulfate on acrosome reaction of human spermatozoa.
# Acrosome refers to the anterior organelle of the sperm head necessary for fertilization of an egg by the sperm.
# [6] = system: HIV; assay: HIV inhibition assay; assay type: cell-based; settings: concentration of 0.005%, in vitro, FIG. 5
# Text: FIG. 5 is a table illustrating the results of HIV inhibition assay experiments.
# [7] = system: HSV; assay: HSV infectivity experiments; assay type: cell-based; settings: in vitro, FIG. 6
# Text: FIG. 6 is a table providing the results of HSV infectivity experiments.
# [8] = system: N. gonorrhea; assay: Infectivity of N. gonorrhea; assay type: cell-based; settings: FIG. 7
# Text: FIG. 7 is a table illustrating the effects of cellulose sulfate on the infectivity of N. gonorrhea.
# (§1) Moreover, cellulose sulfate of the present invention at 1.8% has no effect on normal vaginal flora, namely Lactobacilli (FIG. 8).
# [9] = system: Lactobacilli; assay: Growth of Lactobacilli; assay type: cell-based; settings: 1.8%, FIG. 8
# Text: FIG. 8 is a table illustrating the effects of cellulose sulfate on the growth of Lactobacilli.
# as §1
# [10] = system: chlamydial infection of HeLa cells; assay: Anti-chlamydial effect, chlamydial infection of HeLa cells; assay type: cell-based; settings: 100 μg/ml, FIG. 9
# Procedure: FIG. 9 is a table illustrating anti-chlamydial effects of cellulose sulfate .
# FIG. 9 illustrates anti-chlamydial effect of cellulose sulfate. At a concentration of 100 μg/ml, cellulose sulfate inhibits chlamydial infection of HeLa cells by 91%.
# [11] = system: HIV; settings: known from the art; cited from earlier work
# [12] = system: Herpes Simplex Virus (HSV); settings: known from the art; cited from earlier work
# [13] = if used frequently; cited from earlier work
substance,measurement,setting,value
cellulose sulfate,conception in rabbits inseminated with treated spermatozoa,[1]; pre-treatment of spermatozoa with 1% cellulose sulfate,effectively prevented conception
same,concentration showing antifertility effect on rabbit spermatozoa,"[1]; pre-treatment of spermatozoa, artificial insemination, FIG. 1",≤ 0.1%
same,percentage of fertilized oocytes compared with nonoxynol-9,"[2]; 5% cellulose sulfate vs 2.2% commercial preparation of nonoxynol-9, intravaginal, rabbits",as effective or more effective than nonoxynol-9
same,risk of conception,"[2]; 5% formulation applied intra-vaginally in rabbits, FIG. 2",reduces the risk of conception
same,vaginal irritation,[3],minimal vaginal irritation
same,vaginal irritation in combination with nonoxynol-9,[3],does not cause an increase in the vaginal irritation of nonoxynol-9
same,penetration by spermatozoa into the cervical mucus,[4],"impedes penetration by spermatozoa into the cervical mucus membrane in vitro, and to a significantly greater extent than dextran sulfate"
same,acrosomal loss in human spermatozoa,[5],"induces acrosomal loss in human spermatozoa, and to a significantly greater extent than heparin or dextran sulfate"
same,binding of HIV to human cells,[6],inhibits the binding of HIV to human cells
same,concentration inhibiting infection of human cells by HSV,[7],≤ 0.00001%
same,concentration that can completely kill N. gonorrhea,[8],at least 0.01%
same,"effect on normal vaginal flora, Lactobacilli",[9],no effect
same,inhibition of chlamydial infection of HeLa cells,[10],91%
dextran sulfate,anti-fertility effect of treating spermatozoa,[1],little or no anti-fertility effect
same,HIV infectivity in vitro,[11],inhibit HIV infectivity in vitro
same,HSV inhibition,[12],inhibit Herpes Simplex Virus (HSV)
heparin [reference compound],anti-fertility effect of treating spermatozoa,[1],little or no anti-fertility effect
heparin sulfate,HIV infectivity in vitro,[11],inhibit HIV infectivity in vitro
same,HSV inhibition,[12],inhibit HSV infectivity
nonoxynol-9,effect on natural vaginal flora,[13],inactivates the natural protective vaginal flora
same,irritation of vaginal mucus membrane,[13],causes irritation to the mucus membrane of the vagina
